Results from paper PMC12125541, “Timed chromatin invasion during mitosis governs prototype foamy virus integration site selection and infectivity” (Nucleic Acids Research, 2025).
* marks the point of attachment. Biotin = O=C1N[C@H]2[C@H](CS[C@H]2CCCCC(=O)*)N1

Assays:
recombinant NCPs [1] = assay: Streptavidin pull-down of recombinant nucleosomes with biotinylated Gag CBS peptides; assay type: binding, human; conditions: 2 h at 4°C; for pull-down of nucleosomes: 75–150 mM NaCl, 1.5 μg biotinylated peptide, 3 μg NCP, Coomassie gel
Source text: Recombinant nucleosome core particles (NCPs) (mono-nucleosomes) were assembled as previously described. Briefly, individual human histones H2A, H2B, H3, and H4 were purchased (The Histone Source; Colorado State University) and octamers were assembled by dialysis. The Widom-601 DNA [25] was generated by restriction enzyme digestion of a concatenated construct and purified by anion exchange chromatography onto a POROS-HQ column. NCPs were assembled with a ratio 1.1:1 (1.1 octamer:1 DNA) by successive steps of salt dialysis against TEN buffer (0–2 M NaCl, 10 mM Tris, pH 7.5, 1 mM ethylenediaminetetraacetic acid, 1 mM Dithiothreitol (DTT)). NCPs were kept at −80°C in 0 mM NaCl TEN buffer.
Twenty microliters of streptavidin beads (Dynabeads™ MyOne™ Streptavidin T1; Invitrogen; Thermo Fisher Scientific) were used per condition. StreptaBeads were washed twice with pull-down buffer (20 mM Tris–HCl, pH 7.5, 0.1% NP-40, 10% glycerol, 75–150 mM NaCl, 0.5 mM DTT, and 1 mM Phenylmethylsulfonyl fluoride (PMSF)) containing 75 mM of NaCl and 100 μg of bovine serum albumin (BSA), followed by one wash in the same conditions, without BSA. 1.5 μg of Gag CBS (chromatin binding site) biotinylated peptide and 3 μg of recombinant NCPs were added per condition, in a final volume of 800 μl of pull-down buffer with corresponding NaCl concentrations. The reaction mix was incubated for 2 h on a rotation wheel, at 4°C. Beads were washed three times with the corresponding NaCl concentration buffer, and bound proteins were eluted by the addition of 10 μl of SDS Sample Buffer 2.5×. Samples were separated by sodium dodecyl sulfate–polyacrylamide gel electrophoresis, and analyzed after colloidal Coomassie blue staining.

[2] = system: NCP saturated with H4 tails (H2A–H2B acidic patch); assay: BLI competition: immobilized Gag CBS peptides versus NCP saturated with H4 tails; assay type: binding, human; conditions: mean of two experiments; for binding to NCP saturated with WT H4 tail: 100 nM NCP pre-incubated with 100 μM H4 WT peptide at least 30 min at room temperature
Method: Quantitative interaction experiments were performed by biolayer interferometry (BLI), using a BLItz instrument (Octet® N1; Sartorius). Two different runs were performed: the first one, into water, to coat biosensors with biotinylated peptides (Table 1) and the second, into Blitz buffer [1× phosphate buffer saline, pH 7.4, 0.02% (v/v) Tween 20, 0.1% (w/v) BSA], to fix NCPs on immobilized peptides. All steps were performed under 2200 rpm shaking speed. Streptavidin biosensors (Octet®SA Biosensors; Reference 18-0009; Sartorius) were first pre-wet for at least 10 min with water. The baseline, with only water, was measured for 60 s. Ten micromolar Gag CBS biotinylated peptides (or H4 biotinylated peptides), diluted in water, were loaded onto the biosensors, for 180 s, to reach a binding of ∼1.5 nm, followed by a dissociation step of 180 s. Following the first run, coated biosensors were equilibrated for at least 10 min in Blitz buffer. The second run started with 60 s of baseline, followed by the association step, where biosensors were dipped into serial dilutions of NCPs (10, 25, 50, or 100 nM), for 300 s. Finally, the dissociation step was performed in Blitz buffer, for 300 s. For competition experiments, the second run started with 60 s of baseline in Blitz buffer, followed by 300 s of association step. During this step, solutions of 100 nM of NCPs were pre-incubated with or without 100 μM of H4 peptide [wild type (WT) or mutant, non-biotinylated], in Blitz buffer, for at least 30 min at room temperature. Finally, the dissociation step was performed in Blitz buffer, for 180 s. Nonspecific binding controls were performed, such as binding of 100 nM of NCPs on biosensors without biotinylated peptides loaded, as well as binding of Blitz buffer on loaded biosensors. For each time point measured, data of this second control (binding of Blitz buffer on biosensors loaded with biotinylated Gag WT peptide) were subtracted to every condition and were plotted on curves, using Prism 9 software.

recombinant NCPs [3] = assay: BLI of immobilized biotinylated peptides with recombinant NCP; assay type: binding, human; conditions: for BLI interaction with nucleosomes: peptide on streptavidin biosensor, NCP 10, 25, 50 or 100 nM, 1× PBS pH 7.4, 0.02% Tween 20, 0.1% BSA, representative of three experiments
Source text: Recombinant nucleosome core particles (NCPs) (mono-nucleosomes) were assembled as previously described [13]. Briefly, individual human histones H2A, H2B, H3, and H4 were purchased (The Histone Source; Colorado State University) and octamers were assembled by dialysis. The Widom-601 DNA [25] was generated by restriction enzyme digestion of a concatenated construct and purified by anion exchange chromatography onto a POROS-HQ column. NCPs were assembled with a ratio 1.1:1 (1.1 octamer:1 DNA) by successive steps of salt dialysis against TEN buffer (0–2 M NaCl, 10 mM Tris, pH 7.5, 1 mM ethylenediaminetetraacetic acid, 1 mM Dithiothreitol (DTT)). NCPs were kept at −80°C in 0 mM NaCl TEN buffer.
Quantitative interaction experiments were performed by biolayer interferometry (BLI), using a BLItz instrument (Octet® N1; Sartorius). Two different runs were performed: the first one, into water, to coat biosensors with biotinylated peptides (Table 1) and the second, into Blitz buffer [1× phosphate buffer saline, pH 7.4, 0.02% (v/v) Tween 20, 0.1% (w/v) BSA], to fix NCPs on immobilized peptides. All steps were performed under 2200 rpm shaking speed. Streptavidin biosensors (Octet®SA Biosensors; Reference 18-0009; Sartorius) were first pre-wet for at least 10 min with water. The baseline, with only water, was measured for 60 s. Ten micromolar Gag CBS biotinylated peptides (or H4 biotinylated peptides), diluted in water, were loaded onto the biosensors, for 180 s, to reach a binding of ∼1.5 nm, followed by a dissociation step of 180 s. Following the first run, coated biosensors were equilibrated for at least 10 min in Blitz buffer. The second run started with 60 s of baseline, followed by the association step, where biosensors were dipped into serial dilutions of NCPs (10, 25, 50, or 100 nM), for 300 s. […] For each time point measured, data of this second control (binding of Blitz buffer on biosensors loaded with biotinylated Gag WT peptide) were subtracted to every condition and were plotted on curves, using Prism 9 software.

[4] = target: Gag Y537Q biotinylated peptide (PFV Gag CBS Y537Q) (prototype foamy virus (PFV)); assay: BLI; biotinylated Gag CBS peptides on streptavidin biosensors; NCP 10, 25, 50 or 100 nM in solution; 1× PBS pH 7.4, 0.02% Tween 20, 0.1% BSA; BLItz instrument

Substance | pull-down of nucleosomes (recombinant NCPs [1]) | binding to NCP saturated with WT H4 tail [2] | BLI interaction with nucleosomes (recombinant NCPs [3]) | further results
Biotin-GGQNLRPRTYQPQRYG-OH [Y537Q CBS peptide, Biotinylated PFV Gag CBS peptide with Tyr537Gln substitution] | affected nucleosome interaction, though largely in a salt-independent manner | unable to effectively compete |  | binding to NCP saturated with H4 mut tail ([2]; 100 nM NCP pre-incubated with 100 μM H4 mut peptide at least 30 min at room temperature): unable to effectively compete
Biotin-GGYNLQPRTYQPQRYG-OH [R540Q CBS peptide, Biotinylated PFV Gag CBS peptide with Arg540Gln substitution] |  | no interaction with the NCP | almost complete reduction | pull-down of nucleosomes, physiological salt (recombinant NCPs [1]; 125–150 mM NaCl): virtually eliminated binding; pull-down of nucleosomes, hypotonic conditions (recombinant NCPs [1]; low salt (below 125 mM NaCl)): reduced binding
Biotin-GGYNLRPRTYQPQRYG-OH [WT CBS peptide] | efficiently pulled down nucleosomes across tested salt concentrations | reached the same level as without H4 tails | strongest BLI interaction | 
Biotin-SGRGKGGKGLGKGGAKRHAAVLA-OH [H4 mut, reference compound] |  |  |  | binding of H4 tail peptide to purified NCPs (recombinant NCPs [3]; BLI, immobilized H4 peptide, Supplementary Fig. S7): retains some residual binding
Recombinant nucleosome core particle (human histone octamer on Widom-601 DNA) (from UniProt P04908 1-130; P06899 1-126; P68431 1-136; P62805 1-103) (complex) |  |  |  | fold reduction of the BLI interaction against the WT CBS peptide [4]: 5 fold
